Experimental data published in patent US20240408093A1, “HETEROBIFUNCTIONAL COMPOUNDS AND THEIR USE IN TREATING DISEASE” (HALDA THERAPEUTICS OPCO, INC., priority 2022, published 2024).
Read-outs that look alike come from different tables or passages of the source.

Legend:
HeLa cells (ATCC CCL-2) = assay: Cellular growth inhibition assay, HeLa cells (Example 16); assay type: cell-based; settings: Homo sapiens, 72 hours, CellTiter-Glo 2.0
[1] = tested on: HEK293 cells (ATCC CRL-1573); assay: Cellular growth inhibition assay, HEK293 cells (Example 16); assay type: cell-based; settings: Homo sapiens, 72 hours, CellTiter-Glo 2.0
GSPT1 = assay: Payload release assay (DC50 readout), GSPT1 degradation in the presence of recombinant target protein; assay type: cell-based; settings: I-series compounds (GSPT1 readout inferred)
Method: Exemplary compounds were tested for ability to cause degradation of CCNK or GSPT1 in the presence of recombinant target protein.
HEK293 LgBiT/GSPT1 HiBiT CRISPR Knock-in cells (Promega) were cultured in DMEM (Gibco 11995), supplemented with 10% Heat-inactivated FBS (Gibco A38400-01) and 1% Penicillin/Streptomycin (Gibco 15140-122) and 200 Vg/ml Hygromycin B (Gibco 10-687-010) at 37° C. with 5% CO2 in a humidified tissue culture incubator. HEK293 LgBiT/CCNK HiBiT cells (in-house, described above) were cultured in DMEM (Gibco 11995), supplemented with 10% Heat-inactivated FBS (Gibco A38400-01) and 1% Penicillin/Streptomycin (Gibco 15140-122) 200 Vg/ml Hygromycin B (Gibco 10-687-010), and 1 Vg/ml Puromycin Dihydrochloride (Thermo A1113803) at 37° C. with 5% CO2 in a humidified tissue culture incubator. Cells were seeded (1000 cells/well for HEK293 LgBiT/GSPT1 HiBiT cells or 3000 cells/well for HEK293 LgBiT/CCNK HiBiT cells) 384-well, tissue culture-treated white plates (Perkin Elmer 6007680) in 10 μL media lacking selection for 18-24 hours. Plates were spun at 300 g for 30 seconds and stored in the incubator overnight. After 24 hours, a 5 μL aliquot of recombinant target protein (final concentration of either 5 μM KRAS amino acids 1-169, C51S, C80L, C118S, G12C or 3 μM EGFR amino acids 696-1022 or 3 μM EGFR amino acids 696-1022, T790M, L858R) was added to wells, followed immediately by a 5 μL aliquot of 4× compound-containing medium supplemented with Endurazine Substrate (Promega N2570) was added in each well, at a final top concentration of 10 μM test compound and 0.5× Endurazine, with 4-fold dilutions, using DMSO alone as a negative control. Plates were then spun at 300×g for 3 minutes again and cultured at 37° C. with 5% CO2. After 6 hours the plate was read on Envision MultiMode Plate Reader 2105 (Perkin Elmer) to measure luminescence signal. Data was normalized to DMSO treated cell wells. A four-parameter non-linear regression curve fit was applied to dose-response data in Prism to determine the half maximal growth inhibitory concentration (GI50) of each compound.

KRAS G12C = KRAS G12C (Homo sapiens, UniProt P01116, G12C); assay: KRAS G12C nucleotide exchange assay (SOS1-mediated, HTRF); assay type: biochemical; set-up: GST-tagged KRAS G12C (amino acids 2-169); settings: 1 hr pre-incubation
KRAS G12C, sequence (P01116 2-169 isoform P01116-2 G12C): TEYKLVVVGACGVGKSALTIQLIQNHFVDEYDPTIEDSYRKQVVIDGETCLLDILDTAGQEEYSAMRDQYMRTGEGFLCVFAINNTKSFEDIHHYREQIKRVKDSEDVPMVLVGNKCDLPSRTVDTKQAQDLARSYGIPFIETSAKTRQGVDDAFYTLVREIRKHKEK
Method: KRAS target engagement (IC50 determination) was performed using a KRAS G12C nucleotide exchange assay. Specifically, compounds were tested against KRAS G12C in 10-point concentration IC50 mode with 3-fold serial dilution at a starting concentration of 10 μM. ARS1620 was used as a control.
Briefly, GST-tagged KRAS G12C (amino acids 2-169) was mixed with anti-GST Tb antibody (1.5× solution) and 10 μL was delivered to reaction wells. Compounds were delivered using an acoustic dispenser (Echo, Labcyte) and pre-incubated with protein for 1 hr at RT. KRAS/anti-GST Tb Ab/compound mixture was incubated for 1 hour at room temperature. A 3× solution of SOS1 (amino acids 564-1049) and GTP-DY-647P1 (GTP*) was prepared in reaction buffer. A 5 μL aliquot of SOS1/GTP* solution was added to reaction wells to initiate the exchange reaction. No-SOS1 reaction or max compound concentration was used as blank. The final concentrations of KRAS G12C, SOS1, and GTP* were 30 nM, 20 nM, and 0.15 μM, respectively. SOS1 mediated exchange of GDP to GTP-DY-647P was measured using HTRF (Ex/Em=(320-75/665-7.5; 615-8.5)) using an Envision Plate Reader (Perkin Elmer). IC50 determination was performed using a Sigmoidal dose response (variable slope) equation.

[2] = 0 μM recombinant EGFR T790M L858R, read-out: DC50 at 0 μM EGFR T790M L858R
[3] = 0 μM recombinant EGFR WT, read-out: DC50 at 0 μM EGFR WT
[4] = 3 μM recombinant EGFR T790M L858R, read-out: DC50 at 3 μM EGFR T790M L858R
[5] = 3 μM recombinant EGFR WT, read-out: DC50 at 3 μM EGFR WT

SMILES | GI50 (HeLa cells (ATCC CCL-2)) | GI50 [1] | DC50 (GSPT1; [2]) | DC50 (GSPT1; [3]) | DC50 (GSPT1; [4]) | DC50 (GSPT1; [5]) | IC50 (KRAS G12C) | DC50 (GSPT1; 0 μM recombinant KRAS G12C, read-out: DC50 at 0 μM KRAS G12C) | DC50 (GSPT1; 5 μM recombinant KRAS G12C, read-out: DC50 at 5 μM KRAS G12C)
C=C(CN1CCN(c2nc(NCc3nc4cc(C)ccc4[nH]3)n3ncc(Br)c3n2)CC1)C(=O)Nc1cc(Nc2nccc(-c3cn(C)c4ccccc34)n2)c(OC)cc1N(C)CCN(C)C [II-188] | < 500 nM | < 500 nM | – | – | – | – | – | – | –
C=C(CN1C(=O)CCC(N2Cc3cc(CNC(=O)Nc4ccc(C)c(Cl)c4)ccc3C2=O)C1=O)C(=O)Nc1cc(Nc2ncc(-c3cn(C)c4ccccc34)cn2)c(OC)cc1N(C)CCN(C)C (stereo not shown) [Compound I-87] | < 500 nM | < 500 nM | < 250 nM | < 250 nM | – | – | – | – | –
C=C(COc1ccc(Cl)cc1NC(=O)NCc1ccc2c(c1)CN(C1CCC(=O)NC1=O)C2=O)C(=O)N[C@@H]1CN(c2nc(Nc3cn(C)nc3OC)c3ncn(C)c3n2)C[C@H]1F (stereo partly shown) [Compound I-47] | 500 to 1500 nM | < 500 nM | < 250 nM | < 250 nM | < 250 nM | < 250 nM | – | – | –
C=C(COc1c(Cl)cccc1NC(=O)NCc1ccc2c(c1)CN(C1CCC(=O)NC1=O)C2=O)C(=O)Nc1cc(Nc2nccc(-c3cn(C)c4ccccc34)n2)c(OC)cc1N(C)CCN(C)C (stereo not shown) [Compound I-60] | 1500 to 10000 nM | 500 to 1500 nM | 250 to 5000 nM | 250 to 5000 nM | 250 to 5000 nM | 250 to 5000 nM | – | – | –
C=C(COC(=O)N1CCN(c2nc(NCc3nc4cc(C)ccc4[nH]3)n3ncc(Br)c3n2)CC1)C(=O)N1C[C@H](COc2nc(Nc3cnn(C)c3)nc3[nH]cc(Cl)c23)[C@@H](OC)C1 [II-185] | 500 to 1500 nM | < 500 nM | – | – | – | – | – | – | –
C=C(COc1cc(Cl)cc(NC(=O)NCc2ccc3c(c2)CN(C2CCC(=O)NC2=O)C3=O)c1)C(=O)Nc1cccc(-c2cccc3cnc(Nc4ccc(N5CCN(CCO)CC5)c(F)c4F)nc23)c1 (stereo not shown) [Compound I-61] | 1500 to 10000 nM | < 500 nM | < 250 nM | < 250 nM | < 250 nM | < 250 nM | – | – | –
C=C(CN(C(=O)NCc1ccc2c(c1)CN(C1CCC(=O)NC1=O)C2=O)c1ccc(C)c(Cl)c1)C(=O)Nc1cccc(Oc2nc(Nc3ccc(N4CCN(C)CC4)cc3)nc3ccsc23)c1 (stereo not shown) [Compound I-70] | > 10000 nM | 1500 to 10000 nM | 250 to 5000 nM | 250 to 5000 nM | 250 to 5000 nM | 250 to 5000 nM | – | – | –
C=C(COc1cc(Cl)cc(NC(=O)NCc2ccc3c(c2)CN(C2CCC(=O)NC2=O)C3=O)c1)C(=O)Nc1cccc(Oc2nc(Nc3ccc(N4CCN(C)CC4)cc3)nc3ccsc23)c1 (stereo not shown) [Compound I-55] | 1500 to 10000 nM | 500 to 1500 nM | < 250 nM | < 250 nM | < 250 nM | 250 to 5000 nM | – | – | –
C=C(COC(=O)NCCCc1ccc(Cl)cc1NC(=O)NCc1ccc2c(c1)CN(C1CCC(=O)NC1=O)C2=O)C(=O)N1CCN(c2nc(OC[C@@H]3CCCN3C)nc3c2CCN(c2cccc4cccc(Cl)c24)C3)C[C@@H]1CC#N (stereo partly shown) [Compound I-79] | – | > 10000 nM | – | – | – | – | < 100 nM | 250 to 5000 nM | > 10000 nM
C=C(COc1cc(-c2ccccn2)ccc1CNc1nc(N[C@H](CC)CO)nc2c1ncn2C(C)C)C(=O)N[C@@H]1CN(c2nc(Nc3cn(C)nc3OC)c3ncn(C)c3n2)C[C@H]1F [II-183] | < 500 nM | < 500 nM | – | – | – | – | – | – | –
C=C(CN1CCN(c2nc(NCc3nc4cc(C)ccc4[nH]3)n3ncc(Br)c3n2)CC1)C(=O)Nc1cccc(-c2cccc3cnc(Nc4ccc(N5CCN(CCO)CC5)c(F)c4F)nc23)c1 [II-191] | < 500 nM | < 500 nM | – | – | – | – | – | – | –
